Results published in ChEMBL document CHEMBL1146779, “Bridgehead-methyl analog of SC-53116 as a 5-HT4 agonist” (Bioorg Med Chem Lett, 2004).
pEC50, pKi: −log10 of the molar value.

Key:
[1] = target: T1, 5-hydroxytryptamine receptor 4 (Rattus norvegicus, UniProt Q62758); experiment: Compound was tested for agonist activity at the 5-hydroxytryptamine 4 receptor in the rat tunica muscularis mucosae (TMM) assay; IN = Inactive; type: functional, tissue-based, Muscularis mucosa
[2] = target: T1, 5-hydroxytryptamine receptor 4; experiment: Compound was tested for agonist activity at the 5-hydroxytryptamine 4 receptor in the rat tunica muscularis mucosae (TMM) assay; type: functional, tissue-based, Muscularis mucosa
[3] = target: D(1A) dopamine receptor (Homo sapiens, UniProt P21728); experiment: Compound was evaluated for Dopamine receptor D1 binding
Chain of D(1A) dopamine receptor (P21728 whole entry): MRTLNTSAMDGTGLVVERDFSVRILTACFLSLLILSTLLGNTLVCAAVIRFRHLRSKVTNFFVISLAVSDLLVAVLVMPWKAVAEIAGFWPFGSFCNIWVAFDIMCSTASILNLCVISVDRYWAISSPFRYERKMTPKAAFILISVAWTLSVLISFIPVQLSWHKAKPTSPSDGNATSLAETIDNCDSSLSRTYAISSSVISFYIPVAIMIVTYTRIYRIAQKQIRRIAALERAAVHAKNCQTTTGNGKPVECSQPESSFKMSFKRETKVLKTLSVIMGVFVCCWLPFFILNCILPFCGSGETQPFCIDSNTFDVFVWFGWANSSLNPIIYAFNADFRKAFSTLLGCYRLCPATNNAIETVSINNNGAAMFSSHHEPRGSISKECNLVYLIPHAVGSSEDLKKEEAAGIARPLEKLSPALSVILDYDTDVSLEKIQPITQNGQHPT

[4] = target: T2, Adrenergic receptor alpha-2 (Homo sapiens, UniProt P08913+P18825+P18089); experiment: Compound was evaluated for alpha-2 adrenergic receptor binding; type: protein assay
T2 sequence (P08913 whole entry): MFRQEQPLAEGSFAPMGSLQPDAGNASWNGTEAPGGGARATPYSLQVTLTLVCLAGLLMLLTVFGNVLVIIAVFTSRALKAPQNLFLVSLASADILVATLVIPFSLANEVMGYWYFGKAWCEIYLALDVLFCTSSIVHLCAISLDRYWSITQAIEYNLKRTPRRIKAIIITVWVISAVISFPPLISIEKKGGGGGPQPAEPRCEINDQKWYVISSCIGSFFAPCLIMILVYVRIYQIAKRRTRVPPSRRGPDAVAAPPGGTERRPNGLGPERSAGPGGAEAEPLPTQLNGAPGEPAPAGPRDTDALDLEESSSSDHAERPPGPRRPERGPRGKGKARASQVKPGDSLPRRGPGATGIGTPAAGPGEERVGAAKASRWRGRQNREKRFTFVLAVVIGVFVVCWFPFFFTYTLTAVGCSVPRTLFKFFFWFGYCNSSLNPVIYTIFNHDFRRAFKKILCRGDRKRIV
T2 sequence (P18825 whole entry): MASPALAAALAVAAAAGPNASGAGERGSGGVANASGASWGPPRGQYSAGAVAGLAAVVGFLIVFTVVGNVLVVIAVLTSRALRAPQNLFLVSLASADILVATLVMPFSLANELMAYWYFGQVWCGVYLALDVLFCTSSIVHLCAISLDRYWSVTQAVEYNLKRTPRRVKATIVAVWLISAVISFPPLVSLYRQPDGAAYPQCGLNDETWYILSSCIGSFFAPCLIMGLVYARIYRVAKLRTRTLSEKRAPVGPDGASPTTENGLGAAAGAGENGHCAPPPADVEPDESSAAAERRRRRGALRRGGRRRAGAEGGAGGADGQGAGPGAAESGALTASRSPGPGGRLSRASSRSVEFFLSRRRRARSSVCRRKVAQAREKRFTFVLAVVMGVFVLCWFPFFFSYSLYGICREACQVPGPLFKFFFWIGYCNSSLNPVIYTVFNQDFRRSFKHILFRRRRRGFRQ
T2 sequence (P18089 whole entry): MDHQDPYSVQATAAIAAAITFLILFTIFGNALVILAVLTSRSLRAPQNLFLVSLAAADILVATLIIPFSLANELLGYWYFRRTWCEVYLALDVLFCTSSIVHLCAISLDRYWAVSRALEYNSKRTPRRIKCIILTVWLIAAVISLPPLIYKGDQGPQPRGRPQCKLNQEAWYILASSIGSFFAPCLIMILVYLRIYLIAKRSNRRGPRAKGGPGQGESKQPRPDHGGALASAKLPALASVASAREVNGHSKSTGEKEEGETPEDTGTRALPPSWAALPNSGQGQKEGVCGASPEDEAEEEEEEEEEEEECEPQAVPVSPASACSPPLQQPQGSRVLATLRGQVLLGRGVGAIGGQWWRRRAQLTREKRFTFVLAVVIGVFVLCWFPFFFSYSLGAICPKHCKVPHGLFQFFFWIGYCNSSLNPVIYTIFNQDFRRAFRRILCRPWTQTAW

[5] = target: Serotonin 1 (5-HT1) receptor (Rattus norvegicus, UniProt P28564+P30940+P19327+P28565); experiment: Compound was evaluated for 5-hydroxytryptamine 1 receptor binding; type: protein assay
[6] = target: Serotonin 2 (5-HT2) receptor (Homo sapiens, UniProt P41595+P28223+P28335); experiment: Compound was evaluated for 5-hydroxytryptamine 2 receptor binding; type: protein assay
[7] = target: D(2) dopamine receptor (Homo sapiens, UniProt P14416); experiment: Compound was evaluated for Dopamine receptor D2 binding
Chain of D(2) dopamine receptor (P14416 whole entry): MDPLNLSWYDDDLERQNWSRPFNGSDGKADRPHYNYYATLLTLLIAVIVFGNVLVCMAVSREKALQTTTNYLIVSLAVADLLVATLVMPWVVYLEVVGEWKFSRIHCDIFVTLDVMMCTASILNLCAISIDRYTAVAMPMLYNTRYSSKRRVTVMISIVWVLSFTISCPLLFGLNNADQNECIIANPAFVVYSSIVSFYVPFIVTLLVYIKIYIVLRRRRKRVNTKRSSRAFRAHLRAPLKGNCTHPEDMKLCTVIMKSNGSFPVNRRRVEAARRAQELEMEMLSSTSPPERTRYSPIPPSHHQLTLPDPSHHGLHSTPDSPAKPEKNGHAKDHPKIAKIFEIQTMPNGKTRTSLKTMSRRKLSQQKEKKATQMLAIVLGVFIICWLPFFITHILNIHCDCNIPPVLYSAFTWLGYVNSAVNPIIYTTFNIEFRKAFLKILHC

[8] = target: T3, Adrenergic receptor alpha-1 (Homo sapiens, UniProt P35348+P25100+P35368); experiment: Compound was evaluated for alpha-1 adrenergic receptor binding; type: protein assay
T3 sequence (P35348 whole entry): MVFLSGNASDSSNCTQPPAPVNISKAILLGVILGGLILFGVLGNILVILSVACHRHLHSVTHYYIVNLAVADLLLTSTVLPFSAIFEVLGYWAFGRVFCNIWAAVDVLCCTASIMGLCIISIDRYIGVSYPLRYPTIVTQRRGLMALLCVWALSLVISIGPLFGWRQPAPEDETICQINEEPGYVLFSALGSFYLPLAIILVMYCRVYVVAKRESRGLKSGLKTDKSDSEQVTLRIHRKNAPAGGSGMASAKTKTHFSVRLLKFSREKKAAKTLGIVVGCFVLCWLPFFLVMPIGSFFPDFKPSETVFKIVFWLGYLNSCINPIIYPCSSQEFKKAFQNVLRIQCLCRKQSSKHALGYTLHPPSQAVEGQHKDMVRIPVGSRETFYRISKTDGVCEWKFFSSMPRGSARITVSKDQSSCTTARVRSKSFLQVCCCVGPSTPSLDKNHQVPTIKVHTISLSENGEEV
T3 sequence (P25100 whole entry): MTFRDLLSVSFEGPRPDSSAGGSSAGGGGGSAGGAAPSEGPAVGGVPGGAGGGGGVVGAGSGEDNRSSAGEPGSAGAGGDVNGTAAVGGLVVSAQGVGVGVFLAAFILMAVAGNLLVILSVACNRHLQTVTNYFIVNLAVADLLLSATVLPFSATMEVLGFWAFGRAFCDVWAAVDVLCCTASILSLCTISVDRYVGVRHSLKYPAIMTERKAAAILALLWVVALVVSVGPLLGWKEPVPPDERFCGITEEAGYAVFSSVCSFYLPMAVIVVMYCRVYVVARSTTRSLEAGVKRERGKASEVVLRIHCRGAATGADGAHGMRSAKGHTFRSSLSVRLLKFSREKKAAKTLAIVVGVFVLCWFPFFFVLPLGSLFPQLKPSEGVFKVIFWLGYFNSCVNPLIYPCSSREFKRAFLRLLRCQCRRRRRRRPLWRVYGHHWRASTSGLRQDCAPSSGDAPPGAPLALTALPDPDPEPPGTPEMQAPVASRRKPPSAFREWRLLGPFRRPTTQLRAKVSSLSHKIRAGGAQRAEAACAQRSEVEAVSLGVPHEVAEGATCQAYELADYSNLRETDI
T3 sequence (P35368 whole entry): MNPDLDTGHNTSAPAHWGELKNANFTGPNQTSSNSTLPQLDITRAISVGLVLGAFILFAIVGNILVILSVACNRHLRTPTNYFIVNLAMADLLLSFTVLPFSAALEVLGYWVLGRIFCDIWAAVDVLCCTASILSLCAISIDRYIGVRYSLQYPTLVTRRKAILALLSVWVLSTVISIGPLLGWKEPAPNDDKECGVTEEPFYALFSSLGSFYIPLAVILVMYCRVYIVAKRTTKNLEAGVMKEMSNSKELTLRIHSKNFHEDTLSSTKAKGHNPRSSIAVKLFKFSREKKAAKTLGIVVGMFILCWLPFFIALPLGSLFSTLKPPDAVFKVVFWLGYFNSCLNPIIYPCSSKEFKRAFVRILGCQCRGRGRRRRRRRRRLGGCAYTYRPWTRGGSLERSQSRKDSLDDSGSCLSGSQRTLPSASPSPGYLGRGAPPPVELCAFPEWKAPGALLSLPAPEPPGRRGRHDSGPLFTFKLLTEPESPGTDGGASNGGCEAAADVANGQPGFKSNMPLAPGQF

[9] = target: T1, 5-hydroxytryptamine receptor 4; experiment: Tested for agonist activity at the 5-hydroxytryptamine 4 receptor in the rat tunica muscularis mucosae (TMM) assay of racemate mixture; type: functional
[10] = target: Adrenergic receptor beta (Homo sapiens, UniProt P08588+P07550+P13945); experiment: Compound was evaluated for Beta adrenergic receptor binding; type: protein assay
[11] = target: Serotonin 3 (5-HT3) receptor; experiment: Compound was evaluated for 5-hydroxytryptamine 3 receptor binding; type: protein-complex assay

T1 sequence (Q62758 whole entry): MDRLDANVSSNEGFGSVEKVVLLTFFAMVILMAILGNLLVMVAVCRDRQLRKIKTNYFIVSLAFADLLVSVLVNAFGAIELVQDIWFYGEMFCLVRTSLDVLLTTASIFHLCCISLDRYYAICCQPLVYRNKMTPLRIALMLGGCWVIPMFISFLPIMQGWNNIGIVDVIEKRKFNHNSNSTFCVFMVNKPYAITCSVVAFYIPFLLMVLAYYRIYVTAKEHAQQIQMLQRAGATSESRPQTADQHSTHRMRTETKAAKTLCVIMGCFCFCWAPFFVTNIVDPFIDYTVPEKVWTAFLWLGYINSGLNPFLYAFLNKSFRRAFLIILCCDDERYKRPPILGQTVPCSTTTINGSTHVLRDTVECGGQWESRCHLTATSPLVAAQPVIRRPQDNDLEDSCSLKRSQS

Row | EC50 [1] | pEC50 [2] | pKi [3] | Ki [4] [nM] | Ki [5] [nM] | Ki [6] [nM] | pKi [7] | Ki [8] [nM] | pEC50 [9] | Ki [10] [nM] | pKi [11] | Structure (SMILES)
1 | Not Active | – | – | – | – | – | – | – | – | – | – | COc1cc(N)c(Cl)cc1C(=O)N[C@@H]1C2CC3CN(C2)CC31 (some centres not stated)
2 | – | 7.64 | < 5.00 | > 10000 | > 10000 | > 10000 | < 5.00 | > 10000 | 7.18 | > 10000 | 6.82 | COc1cc(N)c(Cl)cc1C(=O)NC[C@@H]1CCN2CCC[C@@H]12
3 | – | 6.35 | – | – | – | – | – | – | – | – | – | COc1cc(N)c(Cl)cc1C(=O)NC[C@@H]1CCN2CCC[C@@]12C (racemic)
